Assays:
Assay type in all cases: cell-based
[1] = tested on: L1210 (mouse lymphocytic leukemia); experiment: Test on cell proliferation (MTT test), L1210; conditions: 48 hours
Method: (§1) a. Eight tumoral cell lines are used in this study: L1210 (mouse lymphocytic leukemia), HCT15 and LOVO (cell lines of human colon adenocarcinoma), A549 (human lung carcinoma), A172, U373 et U87 (human glioblastoma). All these lines are obtained from the American Type Culture Collection (ATCC), Rockville, Md. The L1210 cell cultures in suspension are cultured in Dulbecco's modified Eagle's medium (DMEM) (BioWhitaker, Verviers, Belgium) together with 10% of foetal calf serum inactivated by heating, 2 mM of glutamine, 50 μg/ml of penicillin and 50 μg/ml of streptomycin. The HT29 cells are cultured in mono-layer cultures in a McCoy 5a medium (Gibco, Paisley, United Kingdom) together with 10% of foetal calf serum inactivated by heat plus 2 mM of glutamine and 50 μg/ml of gentamycin. The other cells are cultured in an Earle's modified essential medium (EMEM; Gibco, Paisley, United Kingdom) together with 5% foetal calf serum inactivated by heat, 2 mM of glutamine, 50 U/ml of penicillin and 50 μg/ml of streptomycin. All the cell lines are cultured at 37° C. in a humidified atmosphere containing 95% air and 5% CO2.
(§2) Inhibition of the tumor cell line proliferation is determined using an MTT test. 1500 L1210 cells in a culture medium (according to the needs of the cell medium) are seeded in a well of a micro-well plate (tissue culture level: 96 wells, flat bottom) 24 hours before treatment with the compounds to be tested. For these dose-response studies, the cells are incubated with each of the compounds to be tested or their corresponding solvent (controls) for 48 hours over a final concentration range of 1.10^−10 to 1.10^−4 M. All the compounds are dissolved just before use in dimethylsulphoxide (DMSO) at a concentration of 50 mM. Other dilutions of the medicaments are carried out in the culture medium. The final concentration of DMSO never exceeds 0.2% (v/v). As controls, the solutions of medicaments are replaced with the solvent which is diluted successively in the same way as the compounds to be tested.
(§3) After the incubation period, the labeling reagent MTT (3-[4,5-dimethylthiazol-2-yl]-2,5-diphenyltetrazolium bromide; Thiazol blue, Sigma M 565, Sigma, St Louis, Mo.) is added at a final concentration of 0.3 mg/ml to each well. The cells are incubated for 4 hours at 37° C. in a humidified atmosphere. This stage allows the mitochondrial dehydrogenase of the living cells to convert the yellow tetrazolium salt MTT into crimson formazan crystals. The supernatant part is eliminated and the formazan crystals formed are solubilized with DMSO. The resultant coloured solution is quantified by absorbance at 570 nm by using a multi-cuvette scanning spectrophotometer. The data concerning the proliferation is expressed as a percentage of living cells in the treated wells, divided by the living cells in the controls. Each point represents the average of three independent experiments, each experiment represents six determinations.
(§4) The results are expressed as percentages of the calculated proliferation by the optical density (OD) of the cells treated with a medicament divided by the OD of the control cells (cells treated with DMSO). As represented in Table II, the compounds to be tested have inhibited the proliferation of cells in a dose-dependent manner.

[2] = tested on: HCT15 (cell lines of human colon adenocarcinoma); experiment: Test on cell proliferation (MTT test), HCT15; conditions: 72 hours
Method: as §1, §2, §3
(§5) For the other cell lines (HCT15, LOVO, A549, A172, U373, U87), 1000 to 2000 cells are seeded in the well of a micro-well plate 24 hours before medicinal treatment. […]
as §4

[3] = tested on: LOVO (cell lines of human colon adenocarcinoma); experiment: Test on cell proliferation (MTT test), LOVO; conditions: 72 hours
Method: as §1, §2, §3, §5, §4

[4] = tested on: A549 (human lung carcinoma); experiment: Test on cell proliferation (MTT test), A549; conditions: 72 hours
Method: as §1, §2, §3, §5, §4

[5] = tested on: A172 (human glioblastoma); experiment: Test on cell proliferation (MTT test), A172; conditions: 72 hours
Method: as §1, §2, §3, §5, §4

[6] = tested on: U373 (human glioblastoma); experiment: Test on cell proliferation (MTT test), U373; conditions: 72 hours
Method: as §1, §2, §3, §5, §4

[7] = tested on: U87 (human glioblastoma); experiment: Test on cell proliferation (MTT test), U87; conditions: 72 hours
Method: as §1, §2, §3, §5, §4

CCc1c2c(nc3ccccc13)-c1cc3c(c(=O)n1C2)COC(=O)CC3(O)CC (stereo not shown) [Example 9, 5,12-diethyl-5-hydroxy-1,4,5,13-tetrahydro-3H,15H-oxepino[3′,4′:6,7]indolizino[1,2-b]quinoline-3,15-dione]
PERCENTAGE OF CELL PROLIFERATION ([1]; 0.1 nM): 74.04%
PERCENTAGE OF CELL PROLIFERATION ([1]; 1 nM): 62.05%
PERCENTAGE OF CELL PROLIFERATION ([1]; 10 nM): 44.72%
PERCENTAGE OF CELL PROLIFERATION ([1]; 100 nM): 34.01%
PERCENTAGE OF CELL PROLIFERATION ([1]; 1 000 nM): 20.20%
PERCENTAGE OF CELL PROLIFERATION ([1]; 10 000 nM): 4.34%
PERCENTAGE OF CELL PROLIFERATION ([1]; 100 000 nM): 1.58%
PERCENTAGE OF CELL PROLIFERATION ([2]; 0.1 nM): 94.00%
PERCENTAGE OF CELL PROLIFERATION ([2]; 1 nM): 89.00%
PERCENTAGE OF CELL PROLIFERATION ([2]; 10 nM): 59.00%
PERCENTAGE OF CELL PROLIFERATION ([2]; 100 nM): 35.00%
PERCENTAGE OF CELL PROLIFERATION ([2]; 1 000 nM): 15.00%
PERCENTAGE OF CELL PROLIFERATION ([2]; 10 000 nM): 8.00%
PERCENTAGE OF CELL PROLIFERATION ([2]; 100 000 nM): 3.00%
PERCENTAGE OF CELL PROLIFERATION ([3]; 0.1 nM): 74.00%
PERCENTAGE OF CELL PROLIFERATION ([3]; 1 nM): 85.00%
PERCENTAGE OF CELL PROLIFERATION ([3]; 10 nM): 44.00%
PERCENTAGE OF CELL PROLIFERATION ([3]; 100 nM): 31.00%
PERCENTAGE OF CELL PROLIFERATION ([3]; 1 000 nM): 21.00%
PERCENTAGE OF CELL PROLIFERATION ([3]; 10 000 nM): 4.00%
PERCENTAGE OF CELL PROLIFERATION ([3]; 100 000 nM): 2.00%
PERCENTAGE OF CELL PROLIFERATION ([4]; 0.1 nM): 91.00%
PERCENTAGE OF CELL PROLIFERATION ([4]; 1 nM): 88.00%
PERCENTAGE OF CELL PROLIFERATION ([4]; 10 nM): 50.00%
PERCENTAGE OF CELL PROLIFERATION ([4]; 100 nM): 31.00%
PERCENTAGE OF CELL PROLIFERATION ([4]; 1 000 nM): 23.00%
PERCENTAGE OF CELL PROLIFERATION ([4]; 10 000 nM): 5.00%
PERCENTAGE OF CELL PROLIFERATION ([4]; 100 000 nM): 3.00%
PERCENTAGE OF CELL PROLIFERATION ([5]; 0.1 nM): 97.00%
PERCENTAGE OF CELL PROLIFERATION ([5]; 1 nM): 89.00%
PERCENTAGE OF CELL PROLIFERATION ([5]; 10 nM): 44.00%
PERCENTAGE OF CELL PROLIFERATION ([5]; 100 nM): 36.00%
PERCENTAGE OF CELL PROLIFERATION ([5]; 1 000 nM): 19.00%
PERCENTAGE OF CELL PROLIFERATION ([5]; 10 000 nM): 3.00%
PERCENTAGE OF CELL PROLIFERATION ([5]; 100 000 nM): 1.00%
PERCENTAGE OF CELL PROLIFERATION ([6]; 0.1 nM): 89.00%
PERCENTAGE OF CELL PROLIFERATION ([6]; 1 nM): 69.00%
PERCENTAGE OF CELL PROLIFERATION ([6]; 10 nM): 24.00%
PERCENTAGE OF CELL PROLIFERATION ([6]; 100 nM): 18.00%
PERCENTAGE OF CELL PROLIFERATION ([6]; 1 000 nM): 8.00%
PERCENTAGE OF CELL PROLIFERATION ([6]; 10 000 nM): 3.00%
PERCENTAGE OF CELL PROLIFERATION ([6]; 100 000 nM): 1.00%
PERCENTAGE OF CELL PROLIFERATION ([7]; 0.1 nM): 105.00%
PERCENTAGE OF CELL PROLIFERATION ([7]; 1 nM): 72.00%
PERCENTAGE OF CELL PROLIFERATION ([7]; 10 nM): 14.00%
PERCENTAGE OF CELL PROLIFERATION ([7]; 100 nM): 7.00%
PERCENTAGE OF CELL PROLIFERATION ([7]; 1 000 nM): 4.00%
PERCENTAGE OF CELL PROLIFERATION ([7]; 10 000 nM): 2.00%
PERCENTAGE OF CELL PROLIFERATION ([7]; 100 000 nM): 6.00%

Source: patent publication US6815546B2, “Analogues of camptothecin, their use as medicaments and the pharmaceutical compositions containing them” (Societe de Recherches et d'Applications Scientifiques …, priority 1995, dated 2004)
